Consider 2 compounds from US11680047B2, “Enhanced erythropoiesis and iron metabolism” (FibroGen, Inc., priority 2003, dated 2023).

The test system of one assay is VCAM-1. The experiment in a line: TNF-α induced VCAM-1 expression in HUVEC. Conditions: TNF-α 1 ng/ml, 1 day. The format is cell-based, human. The source says:
Endothelial cell adhesiveness for lymphocytes occurs, in part, by endothelial cell expression of vascular cell adhesion molecule (VCAM)-1. VCAM-1 expression in endothelial cells is induced by various inflammatory cytokines, such as TNF-α. To investigate the effect of HIF prolyl hydroxylase inhibition on TNF-α induced VCAM-1 expression, HUVEC (human umbilical vein endothelial cells) were stimulated with TNF-α in the absence or presence of various concentrations of compound B or compound C for 1 day. VCAM expression was then measured.
Endothelial E-selectin belongs to the selectin family of cellular adhesion molecules mediating the initial attachment of leukocytes to vascular endothelial cells in inflammatory events. IL-1β, TNF-α, and lipopolysaccharides each induce the expression of E-selectin. (See, e.g., Bevilacqua et al. (1987) Proc Natl Acad Sci USA 84:9238-9242 and Bevilacqua and van Furth (1993) J Leukoc Biol 54:363-378.) To investigate the effect of HIF prolyl hydroxylase inhibition on TNF-α induced E-selectin expression, HUVECs were stimulated with 1 ng/ml TNF-α in the absence or presence of various concentrations of compound B or compound C for 1 day. E-selectin and VCAM expression were then measured.

In a further assay the test system is Ceruloplasmin. The experiment in a line: Ceruloplasmin mRNA expression in mouse kidney (microarray). The format is in vivo. Conditions: single dose 100 mg/kg. On the procedure: Compounds were generally administered orally by gavage or IV administration. Animals treated by oral gavage received a 4-10 ml/kg volume of either 0.5% carboxymethyl cellulose (CMC; Sigma-Aldrich, St. Louis Mo.) with or without 0.1% Polysorbate 80 (0 mg/kg/day) or varying doses of a compound of the present invention (e.g., a HIF prolyl hydroxylase inhibitor) in 0.5% CMC, with or without 0.1% Polysorbate 80, using various dosing regimens. Blood samples were collected at appropriate intervals during treatment from, e.g., tail vein (rats), or abdominal vein or cardiocentesis (mice or rats). Generally, animals were anesthetized with isoflurane and blood samples were collected into MICROTAINER serum separator tubes (Becton-Dickinson, Franklin Lakes N.J.). For measurement of serum components, the tubes were incubated at room temperature for 30 minutes, and then centrifuged at 8,000 rpm at 4° C. for 10 minutes. The serum fraction was then processed and analyzed for the presence of specific components, e.g., serum iron (assay performed by Quality Clinical Labs, Mountain View, Calif.). For determination of hematocrit, blood samples were collected into MICROTAINER EDTA-2K tubes (Becton-Dickinson); EDTA-blood was then drawn into 75 mm×1.1-1.2 mm I.D. capillary tubes (Chase Scientific Glass, Inc., Rockwood Tenn.) to approximately % length, one end of the tube was sealed with CRITOSEAL sealant (Sherwood Medical Company), and the tubes were centrifuged in a J-503M MICROHEMATOCRIT centrifuge (Jorgensen Laboratories, Inc., Loveland Colo.) at 12,000 rpm for 5 minutes. Hematocrit was read against a reader card. When indicated, complete blood count (CBC) analysis, including blood hemoglobin level, reticulocyte number, and hematocrit, was performed by Quality Clinical Labs (Mountain View, Calif.).
Swiss Webster male mice were treated as described above with a single dose of 0.5% CMC (Sigma-Aldrich) (0 mg/kg) or 100 mg/kg compound A. At 4, 8, 16, 24, 48, or 72 hours post-administration, animals were anesthetized, sacrificed, and tissue samples of kidney, liver, brain, lung, and heart were isolated and stored in RNALATER solution (Ambion) at −80° C. Alternatively, animals were treated to 4 consecutive daily doses of 0.5% CMC (0 mg/kg/day), 7.5 mg/ml compound A in 0.5% CMC (30 mg/kg/day), or 25 mg/ml compound A in 0.5% CMC (100 mg/kg/day). Four hours after administration of the final dose, animals were anesthetized, sacrificed, and approximately 150 mg of liver and each kidney were isolated and stored in RNALATER solution (Ambion) at −20° C.
RNA isolation was carried out using the following protocol. A section of each organ was diced, 875 μl of RLT buffer (RNEASY kit; Qiagen Inc., Valencia Calif.) was added, and the pieces were homogenized for about 20 seconds using a rotor-stator POLYTRON homogenizer (Kinematica, Inc., Cincinnati Ohio). The homogenate was micro-centrifuged for 3 minutes to pellet insoluble material, the supernatant was transferred to a new tube and RNA was isolated using an RNEASY kit (Qiagen) according to the manufacturer's instructions. The RNA was eluted into 80 μL of water and quantitated with RIBOGREEN reagent (Molecular Probes, Eugene Oreg.). The absorbance at 260 and 280 nm was measured to determine RNA purity and concentration.
Alternatively, tissue samples were diced and homogenized in TRIZOL reagent (Invitrogen Life Technologies, Carlsbad Calif.) using a rotor-stator POLYTRON homogenizer (Kinematica). Homogenates were brought to room temperature, 0.2 volumes chloroform was added, and samples were mixed vigorously. Mixtures were incubated at room temperature for several minutes and then were centrifuged at 12,000 g for 15 min at 4° C. The aqueous phase was collected and 0.5 volumes of isopropanol were added. Samples were mixed, incubated at room temperature for 10 minutes, and centrifuged for 10 min at 12,000 g at 4° C. […]

In a further assay the test system is NRAMP2. Description: Intestinal NRAMP2 mRNA in rats of ACD Series 2 (microarray). The format is in vivo, rat. The protocol:
At week 6 following administration of compound A in anemic animals (40 mg/kg, twice a week), microarray analysis was performed to examine expression of genes encoding proteins involved with iron transport and absorption in intestine. Microarray analysis was performed using methods described above, using The Rat Genome 230A array (Affymetirx), which represents all sequence in the Rat Unigene database build 99 (National Center for Biotechnology Information, Bethesda, Md.), including approximately 4,699 well-characterized rat genes and approximately 10,467 EST sequences and approximately 700 non-EST sequences.

A further assay deals with healthy human volunteers. Description: Erythropoiesis and iron status in healthy human volunteers. The format is in vivo. Conditions: human subjects; for soluble transferrin receptor levels, maximum response: day 21. The text has this: The effect of prolyl hydroxylase inhibition on erythropoiesis in human subjects was examined as follows. […] At various times following compound administration, blood was drawn for analysis of EPO, hemoglobin, hematocrit, red blood cell counts, soluble transferrin receptor, and serum ferritin levels.

Each structure is given as a SMILES string.

Regarding `O=C(O)CNC(=O)c1ncc2cc(Oc3ccccc3)ccc2c1O` [Compound B, [(4-Hydroxy-7-phenoxy-isoquinoline-3-carbonyl)-amino]-acetic acid], in the assay on VCAM-1, the “inhibition of TNF-α induced VCAM-1 expression” value is recorded as “does-dependent inhibition of TNF-α induced VCAM-1 expression”.
As to `O=C(O)CNC(=O)c1nc(Cl)c2ccccc2c1O` [Compound A, [(1-Chloro-4-hydroxy-isoquinoline-3-carbonyl)-amino]-acetic acid], the “Ceruloplasmin (relative mRNA levels)” value in the assay on Ceruloplasmin (4 hours) is reported as 1.16; with Ceruloplasmin (8 hours) it was 1.39; with Ceruloplasmin (16 hours), 1.22; with Ceruloplasmin (24 hours) it was 2.45; in the assay with Ceruloplasmin (48 hours), 1.44; in the assay with Ceruloplasmin (72 hours) it was 2.10. Also, the “intestinal expression of NRAMP2” value in the assay on NRAMP2 (anemic rats, 40 mg/kg twice a week, week 6) was “increased expression of both NRAMP2 and sproutin in intestine”. In the assay on NRAMP2 (control rats), the “intestinal expression of mRNA for NRAMP2” value is “increased intestinal expression of mRNA for NRAMP2”. The “red blood cell count” value in the assay on healthy human volunteers (20 mg/kg twice weekly or three-times per week) is on record as “increased red blood cell count in human subjects”. The “soluble transferrin receptor levels, maximum response” value in the assay on healthy human volunteers (2-times per week) is 35%; in the assay on healthy human volunteers (3-times per week), 31%. The “decrease of serum ferritin levels” value in the assay with healthy human volunteers (oral 20 mg/kg) is recorded as “approximately 46%”. Also, in the assay with healthy human volunteers (oral 20 mg/kg twice or three-times weekly), the Reticulocyte levels is reported as > 1.7 % of red blood cells. Also, in the assay on healthy human volunteers (twice weekly for three weeks), the hematocrit levels entry is “greater than 46%”.
